The source of these data is the supplement of paper PMC8024199.

± gives the standard deviation of the averaged measurements.

What all share (experiment): drug sensitivity score (DSS) (DSS score); higher = more sensitive (stronger growth inhibition); extreme values may be limits of the assay
The subject of experiment [1] is Ba/F3 P210-BCR-ABL1 RUNX1-/mut (mouse). A digest of the protocol:
(§1)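 Each value is a drug sensitivity score derived from CellTiter-Glo luminescence scaled between vehicle and positive-control wells. Mouse Ba/F3 clones, CRISPR/Cas9-edited at a target exon or edited controls, were seeded at 10,000 cells per well in RPMI with 10% FBS and treated for 72 h at 37 °C and 5% CO2. Compounds from a 528-compound library were tested at five concentrations over a 10,000-fold range, and scores were averaged over two replicates.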

Experiment [2] has as its system Ba/F3 P210-BCR-ABL1 RUNX1-/- (mouse). A digest of the protocol:
as §1

Experiment [3] relates to Ba/F3 P210-BCR-ABL1 RUNX1wt/wt control (mouse). A digest of the protocol: as §1

As for `O=C(O)CC[C@H]1CC[C@@](c2cc(F)ccc2F)(S(=O)(=O)c2ccc(Cl)cc2)CC1` [MK-0752], the drug sensitivity score in experiment [1], in experiment [2] and in experiment [3] was 0 each time.
As to `O=C(c1cccc(Cl)c1F)N1CCN(Cc2cccc(Nc3nccs3)n2)CC1` [MK-8745], the drug sensitivity score in experiment [1] came out at 3.5 ± 0.99; in experiment [2], 4.7 ± 0.14; in experiment [3], 0.85 ± 0.071.
The corresponding values for `Cn1cc(-c2cnn3c(N)c(Br)c([C@@H]4CCCNC4)nc23)cn1` [MK-8776] are 5.25 ± 3.3, 7.25 ± 0.64 and 0.
The corresponding values for `Cc1cnc(-c2ccccc2C(C)C)nc1NCc1ccc(-n2ccnn2)cc1` [ML323] are 3.35 ± 2.9, 4.4 ± 1.6 and 1.25 ± 0.071.
As for `O=C(CCNC(=O)c1ccc(OC(F)(F)F)cc1)N[C@@H]1CCCc2ccccc21` [ML390], the results for the drug sensitivity score in experiment [1], in experiment [2] and in experiment [3] were 19.6 ± 0.92, 18.55 ± 0.071 and 12.4 ± 0.49, respectively.
Consider `O=C(Nc1cccc(NC(=O)c2cccc(O)c2O)c1)c1cccc(O)c1O` [MST-312], for which the drug sensitivity score turned out to be 17.1 ± 2 in experiment [1], 16.6 ± 0.21 in experiment [2] and 17.2 ± 0.42 in experiment [3].
For `CNC(=O)[C@@H](NC(=O)[C@H](CC(C)C)[C@H](O)C(=O)NO)C(C)(C)C` [Marimastat], the figures for the drug sensitivity score in experiment [1], in experiment [2] and in experiment [3] were 0.35 ± 0.49, 0 and 0, respectively.
As for `CC(=O)O[C@]1(C(C)=O)CC[C@H]2[C@@H]3C=C(C)C4=CC(=O)CC[C@]4(C)[C@H]3CC[C@@]21C` [Megestrol acetate], the drug sensitivity score in experiment [1] is 0.15 ± 0.21; in experiment [2], 0.1 ± 0.14; in experiment [3], 0.
As for `CCN(CC)CCCC(C)Nc1c2ccc(Cl)cc2nc2ccc(OC)cc12` (configuration not stated) [Mepacrine], the drug sensitivity score in experiment [1] worked out at 19.7 ± 1.4; in experiment [2] it was 18.6 ± 2.2; in experiment [3], 5.4.
For the molecule `Cc1ccc(C(=O)Nc2ccc(Oc3cc4cnn(C)c4cc3-c3cn[nH]c3)c(F)c2)c(=O)n1-c1ccc(F)cc1` [Merestinib], the drug sensitivity score in experiment [1] was 0; in experiment [2] it was 0; in experiment [3], 0.05 ± 0.071.
Take `CN(C)C(=N)NC(=N)N` [Metformin]: the drug sensitivity score in experiment [1], in experiment [2] and in experiment [3] was 0 each time.
Consider `CNC(=O)c1nn(C)c2c1C(C)(C)Cc1cnc(Nc3ccc(N4CCN(C)CC4)cc3)nc1-2` [Milciclib], for which the figures for the drug sensitivity score in experiment [1], in experiment [2] and in experiment [3] were 14.7 ± 0.85, 20.9 ± 0.78 and 10.8 ± 0.71, respectively.
Turning to `CCCCCCCCCCCCCCCCOP(=O)([O-])OCC[N+](C)(C)C` [Miltefosine], the drug sensitivity score was 5.5 ± 1.3 in experiment [1], 7.05 ± 0.21 in experiment [2] and 2 ± 1.4 in experiment [3].
For `CCS(=O)(=O)Nc1ccc(Oc2ccc(F)cc2F)c(-c2cn(C)c(=O)c3[nH]ccc23)c1` [Mivebresib], the drug sensitivity score came to 41 ± 2 in experiment [1], 41.35 ± 0.21 in experiment [2] and 34 ± 1.3 in experiment [3].
Consider `Nc1ccccc1NC(=O)c1ccc(CNc2nccc(-c3cccnc3)n2)cc1` [Mocetinostat], for which the drug sensitivity score was 17.4 ± 2.3 in experiment [1], 17.5 ± 1.6 in experiment [2] and 17.1 ± 0.14 in experiment [3].
Regarding `CCNC(=O)C[C@@H]1N=C(c2ccc(Cl)cc2)c2cc(OC)ccc2-n2c(C)nnc21` [Molibresib], the drug sensitivity score in experiment [1] came to 18.1 ± 2; in experiment [2], 18.4 ± 1.6; in experiment [3], 12.1 ± 0.14.
On to `N#CCNC(=O)c1ccc(-c2ccnc(Nc3ccc(N4CCOCC4)cc3)n2)cc1` [Momelotinib], for which the drug sensitivity score in experiment [1] was determined as 5.9 ± 1.1; in experiment [2], 8.45 ± 1.1; in experiment [3], 6.15 ± 0.64.
Regarding `CCCN(CCC)C(=O)C1=Cc2ccc(-c3ccc(C(=O)N4CCCC4)cc3)cc2N=C(N)C1` [Motolimod], the drug sensitivity score in experiment [1] is 1 ± 1.1; in experiment [2], 1.45 ± 0.35; in experiment [3], 0.
`FC(F)(F)c1ccc(/C=C/c2nc(COc3ccc(CCCCn4ccnn4)cc3)co2)cc1` [Mubritinib]: the drug sensitivity score is 5.55 ± 0.49 in experiment [1], 5.1 ± 0.28 in experiment [2] and 5.95 ± 0.21 in experiment [3].
`Cc1cc(OCc2nnc(SC3CCCC3)n2-c2cccnc2)ccc1-c1ccc(S(C)(=O)=O)cc1` [NMS-873]: the drug sensitivity score in experiment [1] is 14.7 ± 1.1; in experiment [2], 16.3 ± 1.6; in experiment [3], 22.2 ± 0.71.
`COc1ccc(-c2ccc3ncc4c(c3c2)n(-c2ccc(N3CCNCC3)c(C(F)(F)F)c2)c(=O)n4C)cn1` [NVP-BGT226]: the drug sensitivity score in experiment [1] amounted to 23.1 ± 1.4; in experiment [2], 22.4 ± 2.3; in experiment [3] it was 14.5.
The corresponding values for `Cc1ccc(C(=O)Nc2cccc(C(F)(F)F)c2)cc1Nc1nc(-c2cccnc2)nc2c1cnn2C` [NVP-BHG712] are 5.15 ± 0.071, 7.45 ± 0.35 and 5.4 ± 0.42.
Consider `COc1cc2c(cc1OC(C)C)[C@H](c1ccc(Cl)cc1)N(c1ccc(N(C)C[C@H]3CC[C@H](N4CCN(C)C(=O)C4)CC3)cc1)C(=O)C2` [NVP-CGM097], for which the results for the drug sensitivity score in experiment [1], in experiment [2] and in experiment [3] were 8.8 ± 3, 8.7 ± 0.71 and 6.3 ± 0.28, respectively.
For the molecule `CN[C@@H](C)C(=O)N[C@H](C(=O)N1CCC[C@H]1c1nc(C(=O)c2ccc(F)cc2)cs1)C1CCCCC1` [NVP-LCL161], the results for the drug sensitivity score in experiment [1], in experiment [2] and in experiment [3] were 7.6 ± 8.5, 26.4 ± 4.4 and 23.6 ± 2.8, respectively.
As for `Cn1c(Nc2ccc(C(F)(F)F)cc2)nc2cc(Oc3ccnc(-c4ncc(C(F)(F)F)[nH]4)c3)ccc21` [NVP-RAF265], the drug sensitivity score in experiment [1] was found to be 0; in experiment [2], 2.5 ± 1.8; in experiment [3], 0.
On to `CC(=O)c1cc2c(o1)C(=O)c1ccccc1C2=O` [Napabucasin], for which the values for the drug sensitivity score in experiment [1], in experiment [2] and in experiment [3] were 19.4 ± 3, 17.4 ± 0.14 and 11.1 ± 2.5, respectively.
Turning to `CN1C(=O)N[C@H](Cc2c[nH]c3c(Cl)cccc23)C1=O` [Necrostatin 2], the drug sensitivity score in experiment [1], in experiment [2] and in experiment [3] was 0 in each case.
For the molecule `O=c1ncn2nc(Sc3ccc(F)cc3F)ccc2c1-c1c(Cl)cccc1Cl` [Neflamapimod], the drug sensitivity score in experiment [1] amounted to 0.85 ± 1.2; in experiment [2] it was 1.9 ± 0.71; in experiment [3] it was 0.
As for `CCOc1cc2ncc(C#N)c(Nc3ccc(OCc4ccccn4)c(Cl)c3)c2cc1NC(=O)/C=C/CN(C)C` [Neratinib], the drug sensitivity score came to 1.5 ± 2.1 in experiment [1], 2.35 ± 1.5 in experiment [2] and 0 in experiment [3].
Regarding `COC(=O)c1ccc2c(c1)NC(=O)/C2=C(\Nc1ccc(N(C)C(=O)CN2CCN(C)CC2)cc1)c1ccccc1` [Nintedanib], the drug sensitivity score in experiment [1] was 8.15 ± 4.6; in experiment [2], 17.4; in experiment [3] it was 5.4 ± 0.14.
Turning to `NC(=O)c1cccc2cn(-c3ccc([C@@H]4CCCNC4)cc3)nc12` [Niraparib], the drug sensitivity score in experiment [1] is 8.15 ± 3.3; in experiment [2], 7.8 ± 0.99; in experiment [3], 2.7 ± 0.71.
For the molecule `CC(O)c1cc(C(=O)N[C@@H](C)Cn2ccc(-c3ccc(C#N)c(Cl)c3)n2)n[nH]1` (some centres not stated) [ODM-201], the drug sensitivity score came to 2.05 ± 1.9 in experiment [1], 2.55 ± 0.071 in experiment [2] and 0 in experiment [3].
Consider `CC(=O)c1cnc2ccc(-c3cc(Cl)c(O)c(Cl)c3)nc2c1N[C@H]1CC[C@H](CN(C)C)CC1` [OTS167], for which the figures for the drug sensitivity score in experiment [1], in experiment [2] and in experiment [3] were 20.4 ± 0.92, 22.1 ± 0.78 and 17 ± 0.42, respectively.
For `C=CC(=O)Nc1cccc(Oc2nc(Nc3ccc(N4CCN(C)CC4)cc3)nc3ccsc23)c1` [Olmutinib], the drug sensitivity score in experiment [1] came out at 0.45 ± 0.64; in experiment [2], 0.65 ± 0.92; in experiment [3], 0.
Turning to `COC(=O)C[C@](O)(CCCC(C)(C)O)C(=O)O[C@@H]1C(OC)=C[C@]23CCCN2CCc2cc4c(cc2[C@H]13)OCO4` [Omacetaxine], the drug sensitivity score in experiment [1] was determined as 35.4 ± 3.7; in experiment [2], 33.8 ± 2.5; in experiment [3] it was 28.8 ± 0.92.
Take `CC1(C)CC[C@]2(NC(=O)C(C)(F)F)CC[C@]3(C)[C@H](C(=O)C=C4[C@@]5(C)C=C(C#N)C(=O)C(C)(C)[C@@H]5CC[C@]43C)[C@@H]2C1` [Omaveloxolone]: the drug sensitivity score was 22.4 ± 0.78 in experiment [1], 22.9 ± 0.28 in experiment [2] and 17.2 ± 0.14 in experiment [3].
Regarding `COc1ncc(-c2ccc3nccc(-c4ccnnc4)c3c2)cc1NS(=O)(=O)c1ccc(F)cc1F` [Omipalisib], the drug sensitivity score is 11.9 ± 3.4 in experiment [1], 12.3 ± 1.4 in experiment [2] and 7.8 ± 0.28 in experiment [3].
With `CC(C)c1cc(C(=O)N2Cc3ccc(CN4CCN(C)CC4)cc3C2)c(O)cc1O` [Onalespib], the drug sensitivity score in experiment [1] was found to be 17.8 ± 1.1; in experiment [2] it was 19.1 ± 2.9; in experiment [3], 14.6 ± 0.21.
In the case of `COC[C@H](NC(=O)c1cnc(C)s1)C(=O)N[C@@H](COC)C(=O)N[C@@H](Cc1ccccc1)C(=O)[C@@]1(C)CO1` [Oprozomib], the figures for the drug sensitivity score in experiment [1], in experiment [2] and in experiment [3] were 20.5 ± 1.6, 22.2 ± 1.3 and 19.2 ± 0.35, respectively.
